The results in this text go back to ChEMBL document CHEMBL4699547, “Design, synthesis, and multitargeted profiling of N-benzylpyrrolidine derivatives for the treatment of Alzheimer's disease” (Bioorg Med Chem, 2020).

The target in series [1] is Cholinesterase (Homo sapiens, UniProt P06276). Nature of the series: Inhibition of human BChE by Ellman's method.
The next series addresses Beta-secretase 1 (Homo sapiens, UniProt P56817). Nature of the series: Inhibition of human BACE-1 by FRET assay.
The target of series [2] is T1, Acetylcholinesterase (Homo sapiens, UniProt P22303). Nature of the series: Inhibition of human AChE by Ellman's method. Background: Ellman's reagent forms a yellow product with free thiols.
Series [3] has as its target Cholinesterase (Equus caballus, UniProt P81908). As to the kind of experiment: Inhibition of equine serum BuChE by Ellman's method.
For series [4], the system named is Rattus norvegicus. Nature of the series: Improvement in learning and spatial memory in icv infused amyloid beta (1 to 42)-induced rat model of Alzheimer's disease assessed as reduction in escape latency at 10 mg/kg, po administered for 9 consecutive days starting from 7 days post surgery and measured daily for 5 days by Morris water maze test. It counts as functional, organism-based. To be noted: time 9.0 day.

Series [5] is described as follows: Acute toxicity in po dosed Wistar rat assessed as maximum tolerated dose by OCED guideline method. It counts as organism-based. To be noted: in vivo.
Series [6] has as its target T1, Acetylcholinesterase. Nature of the series: Mixed type inhibition of human AChE assessed as decrease in Vmax using varying level of acetylthiocholine iodide as substrate by Lineweaver-Burk plot analysis.
For series [7], the system named is Rattus norvegicus. Nature of the series: Improvement in learning and spatial memory in icv infused amyloid beta (1 to 42)-induced rat model of Alzheimer's disease assessed as increase in number of platform crossing at 10 mg/kg, po administered for 9 consecutive days starting from 7 days post surgery and measured daily for 5 days by Morris water maze test. It counts as functional, organism-based. To be noted: time 9.0 day.

Series [8] can be described thus: Tmax in Wistar rat at 10 mg/kg, po measured up to 48 hrs. It counts as ADME, organism-based. To be noted: in vivo.
Series [9] in a line: Permeability of the compound at 25 ug/ml after 18 hrs by PAMPA-BBB assay.
Series [10] can be described thus: MRT in Wistar rat at 10 mg/kg, po measured up to 48 hrs. It counts as ADME, organism-based. To be noted: in vivo.
The nature of series [11]: AUC (0 to 48 hrs) in Wistar rat at 10 mg/kg, po measured up to 48 hrs. It counts as ADME, organism-based. More on the design: route oral, dose 10 mg/kg, time <=48. To be noted: in vivo.
Series [12] concerns Rattus norvegicus. As to the kind of experiment: Ex vivo inhibition of AChE in brain of scopolamine-induced Wistar rat model of amnesia at 2.5 to 10 mg/kg, po pretreated for 7 days followed by scopolamine challenge using acetylthiocholine iodide as substrate by Ellman's method. It counts as functional, organism-based. To be noted: dose mg/kg 2.5-10, time 7.0 day.
Series [13] addresses T1, Acetylcholinesterase. As to the kind of experiment: Mixed type inhibition of human AChE assessed as increase in Km using varying level acetylthiocholine iodide as substrate by Lineweaver-Burk plot analysis.
Series [14] deals with Rattus norvegicus. As to the kind of experiment: Antioxidant activity in scopolamine-induced Wistar rat model of amnesia assessed as decrease in MDA level at 2.5 to 10 mg/kg, po pretreated for 7 days followed by scopolamine challenge […]. It counts as functional, organism-based. To be noted: dose mg/kg 2.5-10, time 7.0 day.

For a further series, the system named is SH-SY5Y. As to the kind of experiment: Neuroprotective activity against amyloid beta (1 to 42)-induced oxidative stress in human SH-SY5Y cells assessed as effect on cell viability at 10 to 80 uM measured after 24 hrs by MTT assay (reference value: 62.1 %). To be noted: dose microM 10-80. It counts as functional. (In general: Formazan colour is commonly taken as a measure of viable cells.)

Series [15] in a line: Acute toxicity in Wistar rat assessed as abnormal signs at 175 to 1750 mg/kg, po measured up to 14 days by OCED guideline method. It counts as organism-based. To be noted: in vivo, 336 h, dose 175-1750 mg/kg, time <=14 day.
Series [16] deals with Rattus norvegicus. Nature of the series: Cognitive enhancing effect in po dosed scopolamine-induced Wistar rat model of amnesia assessed as increase in spontaneous alteration pretreated for 7 days followed by scopolamine challenge by Y-maze test. To be noted: dose mg/kg 5-10, time 7.0 day. It counts as functional, organism-based.
The target in series [17] is T1, Acetylcholinesterase. As to the kind of experiment: Mixed type inhibition of human AChE assessed as dissociation constant using varying level acetylthiocholine iodide as substrate by Dixon plot analysis.
Series [18] deals with Rattus norvegicus. Nature of the series: Antioxidant activity in scopolamine-induced Wistar rat model of amnesia assessed as increase in SOD level at 2.5 to 10 mg/kg, po pretreated for 7 days followed by scopolamine challenge […]. It counts as functional, organism-based. To be noted: dose mg/kg 2.5-10, time 7.0 day.

In series [19] the test system is Rattus norvegicus. As to the kind of experiment: Cognitive enhancing effect in scopolamine-induced Wistar rat model of amnesia assessed as effect on total arm entries at 10 mg/kg, po pretreated for 7 days followed by scopolamine challenge by Y-maze test. To be noted: time 7.0 day. It counts as functional, organism-based.
Series [20] is described as follows: Half life in Wistar rat at 10 mg/kg, po measured up to 48 hrs. It counts as ADME, organism-based. To be noted: in vivo.
Series [21] relates to Rattus norvegicus. Nature of the series: Cognitive enhancing effect in scopolamine-induced Wistar rat model of amnesia assessed as increase in spontaneous alteration at 10 mg/kg, po pretreated for 7 days followed by scopolamine challenge by Y-maze test. It counts as functional, organism-based. To be noted: time 7.0 day.
Series [22] in a line: Cmax in Wistar rat at 10 mg/kg, po measured up to 48 hrs. It counts as ADME, organism-based. More on the design: route oral, dose 10 mg/kg, time <=48. To be noted: in vivo.

Each structure is given as a SMILES string. Active and inactive are the calls of the source. The rule behind the calls is not given here.

Beta-secretase 1, sequence (P56817 whole entry): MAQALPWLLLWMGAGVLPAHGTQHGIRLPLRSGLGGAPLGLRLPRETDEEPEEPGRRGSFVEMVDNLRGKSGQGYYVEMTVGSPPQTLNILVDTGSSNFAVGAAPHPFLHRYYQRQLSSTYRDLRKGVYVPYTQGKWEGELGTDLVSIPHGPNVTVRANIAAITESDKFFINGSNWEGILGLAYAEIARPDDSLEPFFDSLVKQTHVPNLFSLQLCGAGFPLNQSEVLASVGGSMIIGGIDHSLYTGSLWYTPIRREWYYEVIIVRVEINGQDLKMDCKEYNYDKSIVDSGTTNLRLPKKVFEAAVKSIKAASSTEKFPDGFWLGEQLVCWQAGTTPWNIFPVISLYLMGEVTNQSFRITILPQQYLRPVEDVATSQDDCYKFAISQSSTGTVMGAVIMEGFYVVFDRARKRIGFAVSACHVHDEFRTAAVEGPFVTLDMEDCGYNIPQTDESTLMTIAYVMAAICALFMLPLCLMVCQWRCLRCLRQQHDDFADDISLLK
Cholinesterase (Homo sapiens, UniProt P06276), sequence (P06276 whole entry): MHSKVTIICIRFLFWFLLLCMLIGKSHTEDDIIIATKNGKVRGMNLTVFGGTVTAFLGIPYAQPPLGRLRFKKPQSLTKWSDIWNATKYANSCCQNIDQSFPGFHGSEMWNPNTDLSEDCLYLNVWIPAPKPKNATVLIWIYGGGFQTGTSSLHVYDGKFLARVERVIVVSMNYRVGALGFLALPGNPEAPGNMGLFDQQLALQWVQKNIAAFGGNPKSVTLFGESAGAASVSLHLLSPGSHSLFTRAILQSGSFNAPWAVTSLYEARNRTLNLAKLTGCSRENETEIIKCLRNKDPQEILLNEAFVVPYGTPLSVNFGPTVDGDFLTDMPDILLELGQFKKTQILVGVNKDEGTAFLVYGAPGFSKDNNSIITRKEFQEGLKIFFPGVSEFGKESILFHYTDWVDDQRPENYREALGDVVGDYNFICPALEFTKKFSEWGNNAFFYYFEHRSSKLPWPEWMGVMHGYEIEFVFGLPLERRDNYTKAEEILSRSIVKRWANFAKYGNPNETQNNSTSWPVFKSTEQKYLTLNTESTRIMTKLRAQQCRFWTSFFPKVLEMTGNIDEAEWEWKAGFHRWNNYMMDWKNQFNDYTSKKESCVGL
T1 sequence (P22303 whole entry): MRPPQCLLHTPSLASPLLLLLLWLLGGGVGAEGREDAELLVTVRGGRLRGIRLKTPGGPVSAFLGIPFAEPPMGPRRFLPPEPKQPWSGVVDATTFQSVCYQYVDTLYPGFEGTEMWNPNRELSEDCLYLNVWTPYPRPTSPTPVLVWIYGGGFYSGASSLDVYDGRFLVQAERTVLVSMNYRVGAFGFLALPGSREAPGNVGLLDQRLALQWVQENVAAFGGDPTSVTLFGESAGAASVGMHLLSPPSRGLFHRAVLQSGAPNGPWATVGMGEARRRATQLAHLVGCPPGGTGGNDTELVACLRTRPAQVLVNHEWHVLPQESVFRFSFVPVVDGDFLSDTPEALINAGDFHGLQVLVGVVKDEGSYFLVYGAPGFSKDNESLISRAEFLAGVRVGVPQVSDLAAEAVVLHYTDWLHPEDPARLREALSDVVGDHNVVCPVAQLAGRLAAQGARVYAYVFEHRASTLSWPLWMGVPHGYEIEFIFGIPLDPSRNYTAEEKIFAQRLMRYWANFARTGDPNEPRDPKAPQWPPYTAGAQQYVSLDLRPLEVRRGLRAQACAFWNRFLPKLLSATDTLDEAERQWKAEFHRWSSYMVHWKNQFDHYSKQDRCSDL
Cholinesterase (Equus caballus, UniProt P81908), sequence (P81908 whole entry, the tested form may be a part): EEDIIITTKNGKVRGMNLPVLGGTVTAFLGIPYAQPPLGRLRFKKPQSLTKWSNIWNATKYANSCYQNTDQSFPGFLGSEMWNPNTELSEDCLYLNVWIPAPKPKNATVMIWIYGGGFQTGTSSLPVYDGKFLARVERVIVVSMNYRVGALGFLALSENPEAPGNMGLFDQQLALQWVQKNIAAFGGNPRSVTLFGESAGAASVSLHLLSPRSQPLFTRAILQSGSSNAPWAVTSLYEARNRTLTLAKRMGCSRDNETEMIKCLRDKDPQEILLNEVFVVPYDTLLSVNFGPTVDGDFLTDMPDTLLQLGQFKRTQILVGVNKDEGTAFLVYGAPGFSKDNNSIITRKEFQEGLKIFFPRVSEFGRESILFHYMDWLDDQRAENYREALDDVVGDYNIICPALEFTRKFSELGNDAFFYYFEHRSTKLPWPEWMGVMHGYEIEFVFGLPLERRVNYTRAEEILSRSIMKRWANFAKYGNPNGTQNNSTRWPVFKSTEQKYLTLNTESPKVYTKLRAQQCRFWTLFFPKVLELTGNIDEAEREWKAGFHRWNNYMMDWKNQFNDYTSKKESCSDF

As usually defined, the IC50 is the midpoint of a concentration-inhibition curve. High values mean lower potency, low ones higher potency. Consider `Oc1ccc(/C=N\C2CCN(Cc3ccccc3)C2)cc1` (stereo not given), for which the results for the IC50 on Cholinesterase [1], at Beta-secretase 1 and against Acetylcholinesterase [2] were 2360 nM, 4580 nM and 5630 nM, respectively.
For the molecule `COc1cc(/C=N\C2CCN(Cc3ccccc3)C2)cc(OC)c1OC` (stereo not given), the 50% inhibitory concentration (IC50) at Cholinesterase [1] is 3500 nM; on Beta-secretase 1 it was over 10000 nM; at Acetylcholinesterase [2] it was 7790 nM.
On to `Cc1ccc(CNC2CCN(Cc3ccccc3)C2)cc1` (stereo not given), for which the figures for the 50% inhibitory concentration (IC50) against Cholinesterase [1], against Beta-secretase 1 and at Acetylcholinesterase [2] were 8750 nM, 2240 nM and 6390 nM, respectively.
As to `Cc1c(OCc2ccccc2)cccc1N1CCN(CCNC2CCN(Cc3ccccc3)C2)CC1` (stereo not given), half-maximal inhibition against Cholinesterase [3] (IC50) required 7780 nM.
With `Oc1ccc(/C=N\C2CCN(Cc3ccccc3)C2)c(O)c1` (stereo not given), the IC50 at Cholinesterase [1] came to 3280 nM; on Beta-secretase 1 it was 4430 nM; against Acetylcholinesterase [2], 3680 nM.
The MTD is the largest dose that counted as tolerated. As a reminder, the Tmax is the time from dosing to the highest level. What is called Papp is the rate of passage across a membrane or cell layer, normalised by area and donor concentration. Read a low Papp as poor permeation. The MRT is a mean duration of stay, worked out from the concentration-time curve. As a reminder, the AUC(0-t) is the area under the concentration-time curve up to a stated or last time point. A lower AUC(0-t) goes with low exposure. By Ki is commonly meant the dissociation constant of the complex between target and ligand, obtained from inhibition or displacement. What is called half-life is how long it takes for the measured level to halve. A high value points to slow decline. What is called Cmax is the highest concentration seen after dosing. As to `FC(F)(F)Oc1ccc(CNC2CCN(Cc3ccccc3)C2)cc1` (stereo not given), the outcome with Rattus norvegicus [4], with Rattus norvegicus [7], in the series with Rattus norvegicus [14], in the series on Rattus norvegicus [18] and in the series on Rattus norvegicus [21] was Active. For the same molecule, in series [5], the maximal tolerated dose (MTD) is 750 mg/kg. For the same molecule, the half-maximal inhibitory concentration (IC50) stood at 82 nM against Cholinesterase [1], 115 nM against Beta-secretase 1 and 58 nM against Acetylcholinesterase [2]. The inhibition result at Acetylcholinesterase [6], in the series with Rattus norvegicus [12] and at Acetylcholinesterase [13] was “Active” each time. Besides, the Tmax in series [8] was found to be 3.3 h. In series [9], this molecule registered an apparent permeability (Papp) at 18 h, 25 ug/ml of 6.9 ×10⁻⁶ cm/s. The MRT in [10] amounted to 22.7 h. The same molecule displayed an AUC(0-t) in series [11] of 5460 ng·h/mL. The Activity was 71.5% with SH-SY5Y, “Non-Toxic” in series [15] and “Dose-dependent effect” in the series on Rattus norvegicus [16]. The Ki at Acetylcholinesterase [17] was 23 nM. Moreover, the outcome in the series on Rattus norvegicus [19] was inactive. For the same molecule, the half-life in series [20] was 15.7 h. For the same molecule, the highest level in series [22] (Cmax) was 272 ng/mL.
As to `COc1cc(CNC2CCN(Cc3ccccc3)C2)cc(OC)c1OC` (stereo not given), the IC50 amounted to 3220 nM against Cholinesterase [1], 844 nM at Beta-secretase 1 and 3130 nM against Acetylcholinesterase [2].
For the molecule `Cc1ccc(/C=N\C2CCN(Cc3ccccc3)C2)cc1` (stereo not given), the IC50 against Cholinesterase [1] was 4860 nM; against Acetylcholinesterase [2], over 10000 nM.
As for `COc1cccc(/C=N\C2CCN(Cc3ccccc3)C2)c1OC` (stereo not given), the IC50 on Cholinesterase [1] is 4270 nM; on Acetylcholinesterase [2], over 10000 nM.
Consider `O=[N+]([O-])c1ccc(/C=N\C2CCN(Cc3ccccc3)C2)cc1` (stereo not given), for which the concentration for half-maximal inhibition (IC50) was determined as 2350 nM on Cholinesterase [1], 3780 nM against Beta-secretase 1 and 2460 nM on Acetylcholinesterase [2].
Take `Oc1ccc(CNC2CCN(Cc3ccccc3)C2)cc1` (stereo not given): the results for the IC50 against Cholinesterase [1], against Beta-secretase 1 and at Acetylcholinesterase [2] were 1930 nM, 968 nM and 1750 nM, respectively.
As to `Clc1ccc(/C=N\C2CCN(Cc3ccccc3)C2)cc1` (stereo not given), the 50% inhibitory concentration (IC50) at Cholinesterase [1] turned out to be 1180 nM; against Beta-secretase 1, 1260 nM; on Acetylcholinesterase [2] it was 1240 nM.
For the molecule `Brc1ccc(CNC2CCN(Cc3ccccc3)C2)cc1` (stereo not given), the IC50 against Cholinesterase [1] was 758 nM; against Beta-secretase 1, 648 nM; against Acetylcholinesterase [2], 133 nM. The Papp at 18 h, 25 ug/ml in [9] was 5.1 ×10⁻⁶ cm/s.
As for `Oc1ccccc1CNC1CCN(Cc2ccccc2)C1` (stereo not given), the half-maximal inhibitory concentration (IC50) stood at 2730 nM at Cholinesterase [1], 2370 nM on Beta-secretase 1 and 2260 nM against Acetylcholinesterase [2].
Regarding `FC(F)(F)c1ccc(/C=N\C2CCN(Cc3ccccc3)C2)cc1` (stereo not given), the figures for the 50% inhibitory concentration (IC50) at Cholinesterase [1], against Beta-secretase 1 and on Acetylcholinesterase [2] were 2150 nM, 683 nM and 1040 nM, respectively.
For `Oc1ccc(CNC2CCN(Cc3ccccc3)C2)c(O)c1` (stereo not given) the same measures were 2690 nM, 482 nM and 1520 nM.
